Results published in patent US8952024B2, “Herbicidal pyrimidone derivatives” (E I du Pont de Nemours and Company, priority 2009, dated 2015).

Columns and labels:
Format in all cases: in vivo
[1] = system: ducksalad (Heteranthera limosa); assay: Test B flooded paddy test; details: for Plant response rating, Flood, Ducksalad: 250 g ai/ha, flooded paddy test, visual rating on 0 to 100 scale (0 no effect, 100 complete control) after 13 to 15 days; for Plant response rating, Ducksalad: Flood (flooded paddy test), 13 to 15 days
Summary of the method: (§1)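 Rice, umbrella sedge, ducksalad and barnyardgrass were grown to the 2-leaf stage, flooded to 3 cm, and compound was applied directly to the paddy water, with that depth kept throughout. After 13 to 15 days in the greenhouse, plants were visually rated against controls on a 0 (no effect) to 100 (complete control) scale.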

rice (Oryza sativa) = assay: Test B flooded paddy test; details: for Plant response rating, Flood, Rice: 250 g ai/ha, flooded paddy test, visual rating on 0 to 100 scale (0 no effect, 100 complete control) after 13 to 15 days; for Plant response rating, Rice: Flood (flooded paddy test), 13 to 15 days
Summary of the method: as §1

[2] = system: umbrella sedge (Cyperus difformis); assay: Test B flooded paddy test; details: for Plant response rating, Flood, Sedge, Umbrella: 250 g ai/ha, flooded paddy test, visual rating on 0 to 100 scale (0 no effect, 100 complete control) after 13 to 15 days; for Plant response rating, Sedge, Umbrella: Flood (flooded paddy test), 13 to 15 days
Summary of the method: as §1

[3] = system: barnyardgrass (Echinochloa crus-galli); assay: Test B flooded paddy test; details: for Plant response rating, Flood, Barnyardgrass: 250 g ai/ha, flooded paddy test, visual rating on 0 to 100 scale (0 no effect, 100 complete control) after 13 to 15 days; for Plant response rating, Barnyardgrass: Flood (flooded paddy test), 13 to 15 days
Summary of the method: as §1

[4] = system: wheat (Triticum aestivum); assay: Test A pre-/postemergence plant response
Summary of the method: (§2)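 Seeds planted in loam soil/sand blend; test chemicals in non-phytotoxic solvent mixture with surfactant applied as directed soil spray preemergence and, concurrently, postemergence to plants 2–10 cm tall at one- to two-leaf stage. Greenhouse ~10 days; visual injury vs untreated controls, 0 (no effect) to 100 (complete control).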

[5] = system: velvetleaf (Abutilon theophrasti); assay: Test A pre-/postemergence plant response
Summary of the method: as §2

[6] = system: morningglory (Ipomoea spp.); assay: Test A pre-/postemergence plant response
Summary of the method: as §2

[7] = system: large crabgrass (Digitaria sanguinalis); assay: Test A pre-/postemergence plant response
Summary of the method: as §2

[8] = system: pigweed (Amaranthus retroflexus); assay: Test A pre-/postemergence plant response
Summary of the method: as §2

corn (Zea mays) = assay: Test A pre-/postemergence plant response
Summary of the method: as §2

[9] = system: giant foxtail (Setaria faberii); assay: Test A pre-/postemergence plant response
Summary of the method: as §2

[10] = system: barnyardgrass (Echinochloa crus-galli); assay: Test A pre-/postemergence plant response
Summary of the method: as §2

[11] = 31 g ai/ha, scale of 0 to 100 where 0 is no effect and 100 is complete control
[12] = 62 g ai/ha, scale 0 to 100, 0 is no effect, 100 is complete control
[13] = 125 g ai/ha, scale 0 to 100, 0 is no effect, 100 is complete control
[14] = Postemergence, 125 g ai/ha, visual injury, 0 to 100 scale (0 no effect, 100 complete control), approx. ten days
[15] = Postemergence, 500 g ai/ha, 0 to 100 scale, 0 = no effect, 100 = complete control, approx. ten days
[16] = Preemergence, 125 g ai/ha, 0 to 100 scale, 0 = no effect, 100 = complete control
[17] = Preemergence, 500 g ai/ha, visual injury, 0 to 100 scale (0 no effect, 100 complete control), approx. ten days

O=C1CCCC(O)=C1C(=O)c1cnc(-c2ccccc2)n(-c2cccc(Br)c2)c1=O [Compound 38]
Plant response rating, Flood, Ducksalad [1]: 65
Plant response rating, Ducksalad [1, 11]: 0
Plant response rating, Ducksalad [1, 12]: 20
Plant response rating, Ducksalad [1, 13]: 60
Plant response rating, Flood, Rice (rice (Oryza sativa)): 0
Plant response rating, Rice (rice (Oryza sativa); [11]): 0
Plant response rating, Rice (rice (Oryza sativa); [12]): 0
Plant response rating, Rice (rice (Oryza sativa); [13]): 0
Plant response rating, Flood, Sedge, Umbrella [2]: 40
Plant response rating, Sedge, Umbrella [2, 11]: 0
Plant response rating, Sedge, Umbrella [2, 12]: 0
Plant response rating, Sedge, Umbrella [2, 13]: 30
Plant response rating, Flood, Barnyardgrass [3]: 0
Plant response rating, Barnyardgrass [3, 11]: 0
Plant response rating, Barnyardgrass [3, 12]: 0
Plant response rating, Barnyardgrass [3, 13]: 0
Wheat plant response rating [4, 14]: 0
Plant response rating, Wheat [4, 15]: 40
Plant response rating, Wheat [4, 16]: 0
Plant response rating, Wheat [4, 17]: 20
Velvetleaf plant response rating [5, 14]: 100
Plant response rating, Velvetleaf [5, 15]: 100
Plant response rating, Velvetleaf [5, 16]: 70
Plant response rating, Velvetleaf [5, 17]: 100
Morningglory plant response rating [6, 14]: 100
Plant response rating, Morningglory [6, 15]: 100
Plant response rating, Morningglory [6, 16]: 0
Plant response rating, Morningglory [6, 17]: 70
Crabgrass, Large plant response rating [7, 14]: 60
Plant response rating, Crabgrass, Large [7, 15]: 100
Plant response rating, Crabgrass, Large [7, 16]: 30
Plant response rating, Crabgrass, Large [7, 17]: 100
Pigweed plant response rating [8, 14]: 100
Plant response rating, Pigweed [8, 15]: 100
Plant response rating, Pigweed [8, 16]: 50
Plant response rating, Pigweed [8, 17]: 100
Corn plant response rating (corn (Zea mays); [14]): 0
Plant response rating, Corn (corn (Zea mays); [15]): 60
Plant response rating, Corn (corn (Zea mays); [16]): 0
Plant response rating, Corn (corn (Zea mays); [17]): 30
Foxtail, Giant plant response rating [9, 14]: 50
Plant response rating, Foxtail, Giant [9, 15]: 90
Plant response rating, Foxtail, Giant [9, 16]: 10
Plant response rating, Foxtail, Giant [9, 17]: 80
Barnyardgrass plant response rating [10, 14]: 60
Plant response rating, Barnyardgrass [10, 15]: 90
Plant response rating, Barnyardgrass [10, 16]: 10
Plant response rating, Barnyardgrass [10, 17]: 90

Cc1c(Cl)cccc1-n1c(-c2ccccc2)ncc(C(=O)C2=C(O)CCCC2=O)c1=O [Compound 40]
Plant response rating, Flood, Ducksalad [1]: 90
Plant response rating, Ducksalad [1, 12]: 0
Plant response rating, Flood, Rice (rice (Oryza sativa)): 25
Plant response rating, Rice (rice (Oryza sativa); [12]): 0
Plant response rating, Flood, Sedge, Umbrella [2]: 85
Plant response rating, Sedge, Umbrella [2, 12]: 70
Plant response rating, Flood, Barnyardgrass [3]: 40
Plant response rating, Barnyardgrass [3, 12]: 0
Wheat plant response rating [4, 14]: 0
Plant response rating, Wheat [4, 15]: 0
Plant response rating, Wheat [4, 16]: 0
Plant response rating, Wheat [4, 17]: 0
Velvetleaf plant response rating [5, 14]: 100
Plant response rating, Velvetleaf [5, 15]: 100
Plant response rating, Velvetleaf [5, 16]: 70
Plant response rating, Velvetleaf [5, 17]: 100
Morningglory plant response rating [6, 14]: 50
Plant response rating, Morningglory [6, 15]: 100
Plant response rating, Morningglory [6, 16]: 10
Plant response rating, Morningglory [6, 17]: 80
Crabgrass, Large plant response rating [7, 14]: 90
Plant response rating, Crabgrass, Large [7, 15]: 100
Plant response rating, Crabgrass, Large [7, 16]: 60
Plant response rating, Crabgrass, Large [7, 17]: 100
Pigweed plant response rating [8, 14]: 100
Plant response rating, Pigweed [8, 15]: 100
Plant response rating, Pigweed [8, 16]: 70
Plant response rating, Pigweed [8, 17]: 90
Corn plant response rating (corn (Zea mays); [14]): 0
Plant response rating, Corn (corn (Zea mays); [15]): 50
Plant response rating, Corn (corn (Zea mays); [16]): 0
Plant response rating, Corn (corn (Zea mays); [17]): 0
Foxtail, Giant plant response rating [9, 14]: 90
Plant response rating, Foxtail, Giant [9, 15]: 100
Plant response rating, Foxtail, Giant [9, 16]: 50
Plant response rating, Foxtail, Giant [9, 17]: 90
Barnyardgrass plant response rating [10, 14]: 90
Plant response rating, Barnyardgrass [10, 15]: 90
Plant response rating, Barnyardgrass [10, 16]: 10
Plant response rating, Barnyardgrass [10, 17]: 100

CCCCc1ncc(C(=O)C2=C(O)CCCC2=O)c(=O)n1-c1ccccc1 [Compound 42]
Plant response rating, Flood, Ducksalad [1]: 50
Plant response rating, Ducksalad [1, 12]: 30
Plant response rating, Flood, Rice (rice (Oryza sativa)): 20
Plant response rating, Rice (rice (Oryza sativa); [12]): 0
Plant response rating, Flood, Sedge, Umbrella [2]: 30
Plant response rating, Sedge, Umbrella [2, 12]: 30
Plant response rating, Flood, Barnyardgrass [3]: 0
Plant response rating, Barnyardgrass [3, 12]: 0
Wheat plant response rating [4, 14]: 0
Plant response rating, Wheat [4, 15]: 0
Plant response rating, Wheat [4, 16]: 0
Plant response rating, Wheat [4, 17]: 0
Velvetleaf plant response rating [5, 14]: 100
Plant response rating, Velvetleaf [5, 15]: 100
Plant response rating, Velvetleaf [5, 16]: 70
Plant response rating, Velvetleaf [5, 17]: 100
Morningglory plant response rating [6, 14]: 80
Plant response rating, Morningglory [6, 15]: 80
Plant response rating, Morningglory [6, 16]: 0
Plant response rating, Morningglory [6, 17]: 50
Crabgrass, Large plant response rating [7, 14]: 60
Plant response rating, Crabgrass, Large [7, 15]: 80
Plant response rating, Crabgrass, Large [7, 16]: 40
Plant response rating, Crabgrass, Large [7, 17]: 90
Pigweed plant response rating [8, 14]: 100
Plant response rating, Pigweed [8, 15]: 100
Plant response rating, Pigweed [8, 16]: 90
Plant response rating, Pigweed [8, 17]: 100
Corn plant response rating (corn (Zea mays); [14]): 0
Plant response rating, Corn (corn (Zea mays); [15]): 30
Plant response rating, Corn (corn (Zea mays); [16]): 0
Plant response rating, Corn (corn (Zea mays); [17]): 0
Foxtail, Giant plant response rating [9, 14]: 40
Plant response rating, Foxtail, Giant [9, 15]: 70
Plant response rating, Foxtail, Giant [9, 16]: 10
Plant response rating, Foxtail, Giant [9, 17]: 40
Barnyardgrass plant response rating [10, 14]: 60
Plant response rating, Barnyardgrass [10, 15]: 90
Plant response rating, Barnyardgrass [10, 16]: 0
Plant response rating, Barnyardgrass [10, 17]: 60

Cc1ccc(F)cc1-n1c(-c2ccccc2)ncc(C(=O)C2=C(O)CCCC2=O)c1=O [Compound 44]
Plant response rating, Flood, Ducksalad [1]: 90
Plant response rating, Ducksalad [1, 12]: 80
Plant response rating, Flood, Rice (rice (Oryza sativa)): 40
Plant response rating, Rice (rice (Oryza sativa); [12]): 20
Plant response rating, Flood, Sedge, Umbrella [2]: 90
Plant response rating, Sedge, Umbrella [2, 12]: 80
Plant response rating, Flood, Barnyardgrass [3]: 30
Plant response rating, Barnyardgrass [3, 12]: 0
Wheat plant response rating [4, 14]: 0
Plant response rating, Wheat [4, 15]: 20
Plant response rating, Wheat [4, 16]: 0
Plant response rating, Wheat [4, 17]: 0
Velvetleaf plant response rating [5, 14]: 100
Plant response rating, Velvetleaf [5, 15]: 100
Plant response rating, Velvetleaf [5, 16]: 70
Plant response rating, Velvetleaf [5, 17]: 100
Morningglory plant response rating [6, 14]: 80
Plant response rating, Morningglory [6, 15]: 90
Plant response rating, Morningglory [6, 16]: 20
Plant response rating, Morningglory [6, 17]: 70
Crabgrass, Large plant response rating [7, 14]: 80
Plant response rating, Crabgrass, Large [7, 15]: 90
Plant response rating, Crabgrass, Large [7, 16]: 80
Plant response rating, Crabgrass, Large [7, 17]: 90
Pigweed plant response rating [8, 14]: 100
Plant response rating, Pigweed [8, 15]: 100
Plant response rating, Pigweed [8, 16]: 60
Plant response rating, Pigweed [8, 17]: 90
Corn plant response rating (corn (Zea mays); [14]): 0
Plant response rating, Corn (corn (Zea mays); [15]): 40
Plant response rating, Corn (corn (Zea mays); [16]): 0
Plant response rating, Corn (corn (Zea mays); [17]): 0
Foxtail, Giant plant response rating [9, 14]: 80
Plant response rating, Foxtail, Giant [9, 15]: 90
Plant response rating, Foxtail, Giant [9, 16]: 30
Plant response rating, Foxtail, Giant [9, 17]: 90
Barnyardgrass plant response rating [10, 14]: 90
Plant response rating, Barnyardgrass [10, 15]: 100
Plant response rating, Barnyardgrass [10, 16]: 30
Plant response rating, Barnyardgrass [10, 17]: 100
